From patent EP0530343B1, “WATER SOLUBLE, NON-IONIC X-RAY CONTRASTING AGENTS AND PROCESS FOR PRODUCING THE SAME” (Dr. Franz Köhler Chemie GmbH, priority 1991, dated 1992)

Tests used:
Solubility = assay type: physicochemical; details: read-out: Löslichkeit
[1] = Viscosity of aqueous solutions; assay type: physicochemical; details: Lösungen in Wasser mit 300 mg I/ml bei 37°C
Experimental: (§1) Die Osmolalität und Viskosität beziehen sich auf Lösungen in Wasser mit 300 mg I/ml bei 37°C.

[2] = Osmolality of aqueous solutions; assay type: physicochemical; details: Lösungen in Wasser mit 300 mg I/ml bei 37°C
Experimental: as §1

[3] = bei 300 mg I/ml; commercial contrast agents; cited from earlier work

CNC(=O)c1c(I)c(N(CCCC(O)CO)C(C)=O)c(I)c(N(CCCC(O)CO)C(C)=O)c1I (stereo not shown) [VIII, 3,5-Bis(N-(4,5-dihydroxypentyl)-acetamido)-2,4,6-tri iodbenzoesäure-N-methylamid]
solubility (Solubility): > 1000 mg/mL
Viskosität [1]: 7,5 cps
Osmolalität [2]: 330 mOsmol/kg

CNC(=O)c1c(I)c(C(=O)NCC(O)CO)c(I)c(N(CCCC(O)CO)C(C)=O)c1I (stereo not shown) [XIX, 5-(N-(4,5-dihydroxypentyl)-acetamido)-2,4,6-triiod-N-methyl-N'-(2,3-dihydroxypropyl)-isophthaldiamid]
solubility (Solubility): > 1000 mg/mL
Viskosität [1]: 5,8 cps
Osmolalität [2]: 405 mOsmol/kg

CC(=O)N(CCC(O)CO)c1c(I)c(C(=O)N(C)C)c(I)c(N(CCC(O)CO)C(C)=O)c1I (stereo not shown) [VII, 3,5-Bis(N-(3,4-dihydroxybutyl)-acetamido)-2,4,6-triiodbenzoesäure-N,N-dimethylamid]
solubility (Solubility): > 1000 mg/mL
Viskosität [1]: 4,5 cps
Osmolalität [2]: 535 mOsmol/kg

CC(=O)Nc1c(I)c(C(=O)N[C@H]2C(O)O[C@H](CO)[C@@H](O)[C@@H]2O)c(I)c(N(C)C(C)=O)c1I (stereo partly shown) [Metrizamid]
Osmolalitäten [3]: 485 mOsmol/kg

CC(=O)N(CCCC(O)CO)c1c(I)c(C(=O)N(C)C)c(I)c(N(CCCC(O)CO)C(C)=O)c1I (stereo not shown) [IX, 3,5-Bis(N-(4,5-dihydroxypentyl)-acetamido)-2,4,6-triiodbenzoesäure-N,N-dimethylamid]
solubility (Solubility): > 1000 mg/mL
Viskosität [1]: 6,3 cps
Osmolalität [2]: 500 mOsmol/kg

CNC(=O)c1c(I)c(N(CCC(O)CO)C(C)=O)c(I)c(N(CCC(O)CO)C(C)=O)c1I (stereo not shown) [VI, 3,5-Bis(N-(3,4-dihydroxybutyl)-acetamido)-2,4,6-triiodbenzoesäure-N-methylamid]
solubility (Solubility): > 1000 mg/mL
Viskosität [1]: 5,3 cps
Osmolalität [2]: 545 mOsmol/kg

CC(=O)N(CCC(O)CO)c1c(I)c(C(=O)N(C)CCN(C)C(=O)c2c(I)c(N(CCC(O)CO)C(C)=O)c(I)c(N(CCC(O)CO)C(C)=O)c2I)c(I)c(N(CCC(O)CO)C(C)=O)c1I (stereo not shown) [XV]
solubility (Solubility): > 1000 mg/mL
Viskosität [1]: 16,5 cps
Osmolalität [2]: 255 mOsmol/kg
